Data as given in patent EP0535528A1, “Antibacterial 5-Nitro-1-methyl-imidazolyl-3-terbutyl-2-hydroxy-aryl-carbinols” (EURORESEARCH S.r.L., priority 1991, dated 1993).
In brackets after ≈: the same amount, converted by molar mass.

Key:
Swiss female albino mice = experiment: Oral and intraperitoneal acute toxicity in mice (LD50, Probits method); format: in vivo; conditions: mice
Procedure: 20 Swiss female albino mice are used for this test of the average weight of 20 g (±2), coming from Nossan breeding .
Cages: in Makrolon® with saw dust litter, Number of animals per cage: 5 Acclimation period: 1 week Temperature: 22°C (± 2°C) Humidity : 60%, Diet: pellets for mice produced by Nossan firm, Water ad libitum Fast before the treatment: 16 hours
Oral by gastric route and intraperitoneal.
The substances to be studied: EU11100, EU11102, EU11103, EU11104 are treated with 0.5% carboxymethylcellulose in spring water, for the oral administration, whereas the same substances are intraperitoneally administered in the form of a physiological solution .
For each of the above mentioned substances, a mother suspension is prepared having a concentration in the active ingredient of 250 mg/ml for the oral administration, and analogously a mother suspension is prepared for the intraperitoneal administration having a concentration of the desired active principle of 100 mg/ml.
The following doses are used • a) oral route: 5000 mg/kg • b) intraperitoneal route : 2000 mg/kg
If mortality is observed at the above mentioned doses, other doses are administered in order to obtain a dose-response curve.
5 animals are used for every utilized concentration.
After the administration of the above substances the animals are kept under observation for 14 days , during which the mortality and the behaviour is observed.
LD₅₀ is determined on the base of the cumulative mortality observed in the successive 14 days after the administration by using the Probits method.

Helicobapter pylori [1] = experiment: Inhibition halos of the bacterial growth (impregnated disks on agar); format: cell-based; conditions: for activity against the Helicobapter pylori strains used: 10 strains; for Inhibition halo (mm), Average: average of 10 strains
Procedure: Comparison substance: Metronidazole Solubilization of the substances : All the substances to be studied are dissolved at room temperature in DMSO.
Some commercially available antibiogram disks are so impregnated with the above mentioned compounds that each disk has concentration equal to 10, 1, 0.1, 0.01 µg.
10 strains of Helicobapter pylori are used of recent clinical isolation.
Columbia Blood Agar Base is used, containing 5% of defibrinated horse blood, 2 % of calf serum, 2 vials of Vitox per liter of medium and Vancomicine (10 µg/ml) Trimetoprim lactate(5 µg/ml) and Polimixin B (2.5 U/ml).
0.1 ml of a suspension of the different used strains are uniformly distributed onto Petri plates, containing 20 ml of Columbia Blood Agar base, obtained by taking a sample, by means of a platinum loop, of different colonies from a 48 hours culture, grown in anaerobiosis jars with "Gas Pack", without a catalyst and diluted into a physiological solution.
4 disks per plate, previously impregnated with the substances under examination, are then placed onto the agar layer of each plate.
After 48 hours of anaerobiosis incubation, as above described, the inhibition halos of the bacterial growth, produced by the different activity of the substances inside the agar, are evaluated.

Helicobapter pylori [2] = experiment: Minimal inhibiting concentration (agar dilution); format: cell-based
Procedure: Substances under examination: EU11100, EU11102, EU11103, EU11104. Comparison substance: Metronidazole Solubilization of the substances: All the substances to be studied are dissolved at room temperature in DMSO. […] 10 strains of Helicobapter pylori are used of recent clinical isolation […] The sowing of the bacteria, prepared as described in the preceding test is carried out by means a "multi-point inoculator". After 48 hours incubation under the condition described in the preceding test, the plates are examined and the Minimal Inhibiting Concentration is evaluated, namely that dose corresponding to growth absence.

Compound: Cc1cc(C(O)c2ncc([N+](=O)[O-])n2C)c(O)c(C(C)(C)C)c1 (stereo not shown) [EU11103, 5-nitro-1-methyl-imidazolyl-3-terbutyl-2-hydroxy-5 methyl-phenyl-carbinol]
- toxicity when intraperitoneally administered (Swiss female albino mice; intraperitoneal, 2000 mg/kg): not toxic
- toxicity when orally administered (Swiss female albino mice; oral, 5000 mg/kg): not toxic
- activity against the Helicobapter pylori strains used (Helicobapter pylori [1]; 0.1 µg/disk): active against 4 out of 10 strains
- activity against the Helicobapter pylori strains used (Helicobapter pylori [1]; 1 µg/disk): active against all the Helicobapter pylori used
- activity against the Helicobapter pylori strains used (Helicobapter pylori [1]; disk test): active against all the Helicobapter pylori strains used
- Inhibition halo (mm), Average (Helicobapter pylori [1]; 1 µg/disk): 26.7 mm
- Inhibition halo (mm), Average (Helicobapter pylori [1]; 10 µg/disk): 36.6 mm
- Inhibition halo (mm) at the concentration (µg/disk) (Helicobapter pylori [1]; strain 1, 0.01 µg/disk): 0 mm
- Inhibition halo (mm) at the concentration (µg/disk) (Helicobapter pylori [1]; strain 1, 1 µg/disk): 30 mm
- Inhibition halo (mm) at the concentration (µg/disk) (Helicobapter pylori [1]; strain 1, 10 µg/disk): 40 mm
- Inhibition halo (mm) at the concentration (µg/disk) (Helicobapter pylori [1]; strain 2, 0.01 µg/disk): 0 mm
- Inhibition halo (mm) at the concentration (µg/disk) (Helicobapter pylori [1]; strain 2, 0.1 µg/disk): 0 mm
- Inhibition halo (mm) at the concentration (µg/disk) (Helicobapter pylori [1]; strain 3, 0.01 µg/disk): 0 mm
- Inhibition halo (mm) at the concentration (µg/disk) (Helicobapter pylori [1]; strain 3, 0.1 µg/disk): 0 mm
- Inhibition halo (mm) at the concentration (µg/disk) (Helicobapter pylori [1]; strain 3, 1 µg/disk): 24 mm
- Inhibition halo (mm) at the concentration (µg/disk) (Helicobapter pylori [1]; strain 3, 10 µg/disk): 35 mm
- Inhibition halo (mm) at the concentration (µg/disk) (Helicobapter pylori [1]; strain 4, 0.01 µg/disk): 0 mm
- Inhibition halo (mm) at the concentration (µg/disk) (Helicobapter pylori [1]; strain 4, 0.1 µg/disk): 20 mm
- Inhibition halo (mm) at the concentration (µg/disk) (Helicobapter pylori [1]; strain 4, 10 µg/disk): 44 mm
- Inhibition halo (mm) at the concentration (µg/disk) (Helicobapter pylori [1]; strain 5, 0.01 µg/disk): 0 mm
- Inhibition halo (mm) at the concentration (µg/disk) (Helicobapter pylori [1]; strain 5, 0.1 µg/disk): 0 mm
- Inhibition halo (mm) at the concentration (µg/disk) (Helicobapter pylori [1]; strain 5, 1 µg/disk): 17 mm
- Inhibition halo (mm) at the concentration (µg/disk) (Helicobapter pylori [1]; strain 5, 10 µg/disk): 22 mm
- Inhibition halo (mm) at the concentration (µg/disk) (Helicobapter pylori [1]; strain 6, 0.01 µg/disk): 0 mm
- Inhibition halo (mm) at the concentration (µg/disk) (Helicobapter pylori [1]; strain 6, 1 µg/disk): 32 mm
- Inhibition halo (mm) at the concentration (µg/disk) (Helicobapter pylori [1]; strain 6, 10 µg/disk): 43 mm
- Inhibition halo (mm) at the concentration (µg/disk) (Helicobapter pylori [1]; strain 7, 0.01 µg/disk): 0 mm
- Inhibition halo (mm) at the concentration (µg/disk) (Helicobapter pylori [1]; strain 7, 0.1 µg/disk): 0 mm
- Inhibition halo (mm) at the concentration (µg/disk) (Helicobapter pylori [1]; strain 7, 1 µg/disk): 20 mm
- Inhibition halo (mm) at the concentration (µg/disk) (Helicobapter pylori [1]; strain 7, 10 µg/disk): 28 mm
- Inhibition halo (mm) at the concentration (µg/disk) (Helicobapter pylori [1]; strain 8, 0.01 µg/disk): 0 mm
- Inhibition halo (mm) at the concentration (µg/disk) (Helicobapter pylori [1]; strain 8, 0.1 µg/disk): 21 mm
- Inhibition halo (mm) at the concentration (µg/disk) (Helicobapter pylori [1]; strain 8, 1 µg/disk): 37 mm
- Inhibition halo (mm) at the concentration (µg/disk) (Helicobapter pylori [1]; strain 8, 10 µg/disk): 45 mm
- Inhibition halo (mm) at the concentration (µg/disk) (Helicobapter pylori [1]; strain 9, 0.01 µg/disk): 0 mm
- Inhibition halo (mm) at the concentration (µg/disk) (Helicobapter pylori [1]; strain 9, 0.1 µg/disk): 0 mm
- Inhibition halo (mm) at the concentration (µg/disk) (Helicobapter pylori [1]; strain 9, 1 µg/disk): 22 mm
- Inhibition halo (mm) at the concentration (µg/disk) (Helicobapter pylori [1]; strain 9, 10 µg/disk): 33 mm
- Inhibition halo (mm) at the concentration (µg/disk) (Helicobapter pylori [1]; strain 10, 0.01 µg/disk): 0 mm
- Inhibition halo (mm) at the concentration (µg/disk) (Helicobapter pylori [1]; strain 10, 0.1 µg/disk): 0 mm
- Inhibition halo (mm) at the concentration (µg/disk) (Helicobapter pylori [1]; strain 10, 1 µg/disk): 24 mm
- MIC50 (Helicobapter pylori [2]; 10 strains): 0.03 µg/mL (≈ 0.0939 µM)
- MIC90 (Helicobapter pylori [2]; 10 strains): 0.06 µg/mL (≈ 0.188 µM)
- MIC range (Helicobapter pylori [2]; 10 strains): 0.015 to 0.016 µg/mL
- MIC values (Helicobapter pylori [2]; in words, compared with Metronidazole): very low MIC values
- MIC (Helicobapter pylori [2]; strain 1): 0.06 µg/mL (≈ 0.188 µM)
- MIC (Helicobapter pylori [2]; strain 2): 0.06 µg/mL (≈ 0.188 µM)
- MIC (Helicobapter pylori [2]; strain 3): 0.03 µg/mL (≈ 0.0939 µM)
- MIC (Helicobapter pylori [2]; strain 4): 0.03 µg/mL (≈ 0.0939 µM)
- MIC (Helicobapter pylori [2]; strain 5): 0.03 µg/mL (≈ 0.0939 µM)
- MIC (Helicobapter pylori [2]; strain 6): 0.03 µg/mL (≈ 0.0939 µM)
- MIC (Helicobapter pylori [2]; strain 7): 0.06 µg/mL (≈ 0.188 µM)
- MIC (Helicobapter pylori [2]; strain 8): 0.06 µg/mL (≈ 0.188 µM)
- MIC (Helicobapter pylori [2]; strain 9): 0.03 µg/mL (≈ 0.0939 µM)
- MIC (Helicobapter pylori [2]; strain 10): 0.015 µg/mL (≈ 0.047 µM)
